The subject of data set [1] is mouse embryonic fibroblast cells (MEFs). Briefly: Cell morphology and attachment of MEFs. The class given is cell-based.
The test system of data set [2] is LRRK2 Ser935, Ser910, Ser955 and Ser973. Briefly: LRRK2 biomarker site phosphorylation in primary human neutrophils. Particulars: up to 3 μM. It is filed as cell-based. The method, then:
Cell extracts were mixed with a quarter of a volume of NuPage LDS Sample buffer 4× Invitrogen and heated at 95°C for 5 min. […] At the end of electrophoresis, proteins were electrophoretically transferred onto the nitrocellulose membrane (GE Healthcare, Amersham Protran Supported 0.45 µm NC) at 100 V for 90 min on ice in the transfer buffer (48 mM Tris–HCl and 39 mM glycine supplemented with 20% methanol). Transferred membrane was blocked with 5% (w/v) skim milk powder dissolved in TBS-T [20 mM Tris–HCl, pH 7.5, 150 mM NaCl and 0.1% (v/v) Tween 20] at room temperature for 1 h. The membrane was typically cropped into three pieces, namely the ‘top piece’ (from the top of the membrane to 75 kDa), the ‘middle piece’ (between 75 and 30 kDa) and the ‘bottom piece’ (from 30 kDa to the bottom of the membrane). All primary antibodies were used at 1 μg/ml final concentration and incubated in TBS-T containing 5% (by mass) bovine serum albumin with exception of α-tubulin and GAPDH antibodies that were diluted 1 : 5000 and 1 : 2000, respectively. The top piece was incubated with the indicated rabbit anti-LRRK2 phosphorylation site antibody multiplexed with mouse anti-LRRK2 C-terminus total antibody. […] Protein bands were acquired via near infrared fluorescent detection using the Odyssey CLx imaging system and quantified using the Image Studio software. […]

In data set [3] the test system is basal mitophagy, wild type MEFs. As to the kind of experiment: mito-QC basal mitophagy in wild-type primary MEFs. It is filed as cell-based, mouse. Particulars: 24 h, 30–300 nM GZD-824, GSK3357679A 100 nM positive control. The method, then:
To assess mitophagy, wild type, G2019S knock in, and LRRK2 knock out primary mouse embryonic fibroblasts (MEFs) were derived, from time-mated pregnant females at E12.5 as previously described. Briefly, cells were plated on glass coverslips and incubated with DMEM (Gibco, 11960-044) supplemented with 10% FBS, 2 mM L-Glutamine (Gibco, 2503-081), 1% non-essential amino acids (Gibco, 11140-035), 1% Antibiotics (Penicillin/Streptomycin 100 U/ml penicillin and 100 µg/ml streptomycin; Gibco), and 150 µM β-Mercaptoethanol (Gibco, 21985-023) at 37°C under a humidified 5% CO2 atmosphere. […] GSK3357679A 100 nM (Ding et al., in prep) was used as a positive control. At the end of the treatment, MEFs were briefly washed twice in DPBS (Gibco, 14190-094), and fixed in 3.7% Paraformaldehyde pH 7.00 (Sigma, P6148), 200 mM HEPES, for 20 min. Cells were then washed two times with DMEM, 10 mM HEPES, and then incubated for 10 min with DMEM, 10 mM HEPES. […] Images were acquired using a Nikon Eclipse Ti-S fluorescence microscope with a 63× objective. Images were analyzed using the mito-QC counter as previously described. Experiments were performed in 3–4 independent experiments and data was analyzed with a one-way ANOVA followed by a Dunnett's multiple comparison test using the GraphPad Prism software (version 8.4.3 (686)).

From paper PMC8589421, “Impact of Type II LRRK2 inhibitors on signaling and mitophagy” (Biochemical Journal, 2021) come the findings set out here.

With `Cc1ccc(C(=O)Nc2ccc(CN3CCN(C)CC3)c(C(F)(F)F)c2)cc1C#Cc1cnc2[nH]ncc2c1` [GZD-824], in data set [1], the “concentration that impacted cell morphology and attachment” value is reported as at least 10 μM. Also, the “phosphorylation of Ser935, Ser910, Ser955 and Ser973” value in data set [2] is reported as “unaffected”. Further, in data set [3], the “stimulation of basal mitophagy” value is given as about 2 fold.
